Measurements as given in ChEMBL document CHEMBL4765380, “Synthesis, structure and anticancer activity of new geldanamycin amine analogs containing C(17)- or C(20)- flexible and rigid arms as well as closed or open ansa-bridges” (Eur J Med Chem, 2020).

Tests used:
A549 = assay: Antiproliferative activity against human A549 cells assessed as reduction in cell growth incubated for 72 hrs by SRB assay; format: functional, cell-based; conditions: A549, 72 h
SK-BR-3 = assay: Antiproliferative activity against human SK-BR-3 cells assessed as reduction in cell growth incubated for 72 hrs by SRB assay; format: functional, cell-based; conditions: SK-BR-3, 72 h
[1] = Selectivity index, ratio of IC50 for cytotoxicity against human HDF cells to IC50 for cytotoxicity against human SK-BR-3 cells; format: toxicity, cell-based; conditions: HDF cells versus SK-BR-3 cells, read-out: Ratio IC50
[2] = Selectivity index, ratio of IC50 for cytotoxicity against human HDF cells to IC50 for cytotoxicity against human A549 cells; format: toxicity, cell-based; conditions: HDF cells versus A549 cells, read-out: Ratio IC50
[3] = Selectivity index, ratio of IC50 for cytotoxicity against human HDF cells to IC50 for cytotoxicity against human SK-OV-3 cells
U-87 MG = assay: Antiproliferative activity against human U-87 MG cells assessed as reduction in cell growth incubated for 72 hrs by SRB assay; format: functional, cell-based, U-87MG ATCC
[4] = Selectivity index, ratio of IC50 for cytotoxicity against human HDF cells to IC50 for cytotoxicity against human U-87 MG cells; format: toxicity, cell-based; conditions: HDF cells versus U-87 MG cells, read-out: Ratio IC50
SK-OV-3 = assay: Antiproliferative activity against human SK-OV-3 cells assessed as reduction in cell growth incubated for 72 hrs by SRB assay; format: functional, cell-based; conditions: SK-OV-3, 72 h
[5] = Selectivity index, ratio of IC50 for cytotoxicity against human HDF cells to IC50 for cytotoxicity against human PC-3 cells; format: toxicity, cell-based; conditions: HDF cells versus PC-3 cells, read-out: Ratio IC50
PC-3 = assay: Antiproliferative activity against human PC-3 cells assessed as reduction in cell growth incubated for 72 hrs by SRB assay; format: functional, cell-based; conditions: PC-3, 72 h
[6] = Cytotoxicity against human HDF cells assessed as reduction in cell growth incubated for 72 hrs by SRB assay; format: cell-based; conditions: HDFa

`CO[C@H]1/C=C\C=C(/C)C(=O)NC2=CC(=O)C(NCCO)=C(C[C@@H](C)C[C@H](OC)[C@H](O)[C@@H](C)/C=C(\C)[C@@H]1OC(N)=O)C2=O` gave an IC50 (A549) of 1.05 µM, an IC50 (SK-BR-3) of 1.13 µM and a selectivity ratio [1] of 3.51. For the same compound, the selectivity ratio [2] was 3.78, the “Ratio IC50” value [3] was 3.58 and the IC50 (U-87 MG) was 1.25 µM. For the same compound, the selectivity ratio [4] was 3.18, the IC50 (SK-OV-3) was 1.11 µM and the selectivity ratio [5] was 2.9. The IC50 (PC-3) was 1.37 µM and the IC50 [6] was 3.97 µM.

In the case of `C#CCNC1=C2C[C@@H](C)C[C@H](OC)[C@H](O)[C@@H](C)/C=C(\C)[C@H](OC(N)=O)[C@@H](OC)/C=C\C=C(/C)C(=O)NC(=CC1=O)C2=O`, the IC50 (A549) is reported as 4.52 µM, the IC50 (SK-BR-3) is reported as 4.44 µM and the selectivity ratio [1] is reported as 1.77. For the same compound, the selectivity ratio [2] was 1.74, the “Ratio IC50” value [3] was 1.9 and the IC50 (U-87 MG) was 4.01 µM. It also gave a selectivity ratio [4] of 1.97, an IC50 (SK-OV-3) of 4.15 µM and a selectivity ratio [5] of 2.18. It also gave an IC50 (PC-3) of 3.61 µM and an IC50 [6] of 7.88 µM.

For `CO[C@H]1/C=C\C=C(/C)C(=O)NC2=CC(=O)C(NCCCN3CCCC3)=C(C[C@@H](C)C[C@H](OC)[C@H](O)[C@@H](C)/C=C(\C)[C@@H]1OC(N)=O)C2=O`, the IC50 (A549) was 2.61 µM, the IC50 (SK-BR-3) was 2.06 µM and the selectivity ratio [1] was 3.58. For the same compound, the selectivity ratio [2] was 2.83, the “Ratio IC50” value [3] was 2.62 and the IC50 (U-87 MG) was 2.04 µM. For the same compound, the selectivity ratio [4] was 3.62, the IC50 (SK-OV-3) was 2.82 µM and the selectivity ratio [5] was 2.7. For the same compound, the IC50 (PC-3) was 2.73 µM and the IC50 [6] was 7.38 µM.

Compound `CO[C@H]1/C=C\C=C(/C)C(=O)NC2=CC(=O)C(NCC3COCCOCCOCCOCCO3)=C(C[C@@H](C)C[C@H](OC)[C@H](O)[C@@H](C)/C=C(\C)[C@@H]1OC(N)=O)C2=O` (stereo partly drawn) has an IC50 (A549) of 2.08 µM, a selectivity ratio [1] of 2.48 and a selectivity ratio [2] of 2.75. The “Ratio IC50” value [3] was 1.94, the IC50 (U-87 MG) was 2.99 µM and the selectivity ratio [4] was 1.91. For the same compound, the IC50 (SK-OV-3) was 2.94 µM, the selectivity ratio [5] was 2.26 and the IC50 (PC-3) was 2.33 µM. For the same compound, the IC50 [6] was 5.71 µM.

`CO[C@H]1/C=C\C=C(/C)C(=O)NC2=CC(=O)C(NCCCCCCO)=C(C[C@@H](C)C[C@H](OC)[C@H](O)[C@@H](C)/C=C(\C)[C@@H]1OC(N)=O)C2=O` showed an IC50 (A549) of 2.77 µM, an IC50 (SK-BR-3) of 2.07 µM and a selectivity ratio [1] of 2.89. For the same compound, the selectivity ratio [2] was 2.16, the “Ratio IC50” value [3] was 2.74 and the IC50 (U-87 MG) was 2.08 µM. It also gave a selectivity ratio [4] of 2.88, an IC50 (SK-OV-3) of 2.19 µM and a selectivity ratio [5] of 2.67. For the same compound, the IC50 (PC-3) was 2.24 µM and the IC50 [6] was 5.99 µM.

With `CO[C@H]1/C=C\C=C(/C)C(=O)NC2=CC(=O)C(NCc3ccc(CS(N)(=O)=O)cc3)=C(C[C@@H](C)C[C@H](OC)[C@H](O)[C@@H](C)/C=C(\C)[C@@H]1OC(N)=O)C2=O` the IC50 (A549) was 2.02 µM, the IC50 (SK-BR-3) was 2.06 µM and the selectivity ratio [1] was 2.41. The “Ratio IC50” value [3] was 2.48, the IC50 (U-87 MG) was 2.74 µM and the selectivity ratio [4] was 1.81. It also gave an IC50 (SK-OV-3) of 2 µM, a selectivity ratio [5] of 2.9 and an IC50 (PC-3) of 1.78 µM. For the same compound, the IC50 [6] was 4.96 µM.

`CO[C@H]1/C=C\C=C(/C)C(=O)NC2=CC(=O)C(NCc3cccc(CS(=O)(=O)N(C(C)C)C(C)C)c3)=C(C[C@@H](C)C[C@H](OC)[C@H](O)[C@@H](C)/C=C(\C)[C@@H]1OC(N)=O)C2=O` gave an IC50 (A549) of 2.97 µM, an IC50 (SK-BR-3) of 2.48 µM and a selectivity ratio [1] of 2.17. For the same compound, the selectivity ratio [2] was 1.81, the “Ratio IC50” value [3] was 2.62 and the IC50 (U-87 MG) was 2.39 µM. The selectivity ratio [4] was 2.25, the IC50 (SK-OV-3) was 2.05 µM and the selectivity ratio [5] was 1.95. For the same compound, the IC50 (PC-3) was 2.75 µM and the IC50 [6] was 5.37 µM.

In the case of `CO[C@H]1/C=C\C=C(/C)C(=O)NC2=CC(=O)C(NCCOCCO)=C(C[C@@H](C)C[C@H](OC)[C@H](O)[C@@H](C)/C=C(\C)[C@@H]1OC(N)=O)C2=O`, the IC50 (A549) is reported as 2.15 µM, the IC50 (SK-BR-3) is reported as 2.05 µM and the selectivity ratio [1] is reported as 2.43. For the same compound, the selectivity ratio [2] was 2.32, the “Ratio IC50” value [3] was 1.99 and the IC50 (U-87 MG) was 2.66 µM. It also gave a selectivity ratio [4] of 1.88, an IC50 (SK-OV-3) of 2.51 µM and a selectivity ratio [5] of 2.55. It also gave an IC50 (PC-3) of 1.96 µM and an IC50 [6] of 4.99 µM.

Compound `CCOC(=O)[C@@H](N)CCCCNC1=C2C[C@@H](C)C[C@H](OC)[C@H](O)[C@@H](C)/C=C(\C)[C@H](OC(N)=O)[C@@H](OC)/C=C\C=C(/C)C(=O)NC(=CC1=O)C2=O` has an IC50 (A549) of 1.39 µM, an IC50 (SK-BR-3) of 1.37 µM and a selectivity ratio [1] of 2.33. For the same compound, the selectivity ratio [2] was 2.29, the “Ratio IC50” value [3] was 2.93 and the IC50 (U-87 MG) was 1.05 µM. For the same compound, the selectivity ratio [4] was 3.04, the IC50 (SK-OV-3) was 1.09 µM and the selectivity ratio [5] was 2.53. For the same compound, the IC50 (PC-3) was 1.26 µM and the IC50 [6] was 3.19 µM.

Work on `CO[C@H]1/C=C\C=C(/C)C(=O)NC2=CC(=O)C(NCc3ccccc3F)=C(C[C@@H](C)C[C@H](OC)[C@H](O)[C@@H](C)/C=C(\C)[C@@H]1OC(N)=O)C2=O` yielded an IC50 (A549) of 1.13 µM, an IC50 (SK-BR-3) of 1.84 µM and a selectivity ratio [1] of 1.46. The selectivity ratio [2] was 2.38, the “Ratio IC50” value [3] was 1.99 and the IC50 (U-87 MG) was 1.04 µM. For the same compound, the selectivity ratio [4] was 2.59, the IC50 (SK-OV-3) was 1.35 µM and the selectivity ratio [5] was 1.77. For the same compound, the IC50 (PC-3) was 1.52 µM and the IC50 [6] was 2.69 µM.

Work on `CO[C@H]1/C=C\C=C(/C)C(=O)NC2=CC(=O)C(NC3CCN(C(C)=O)CC3)=C(C[C@@H](C)C[C@H](OC)[C@H](O)[C@@H](C)/C=C(\C)[C@@H]1OC(N)=O)C2=O` yielded an IC50 (A549) of 0.97 µM, an IC50 (SK-BR-3) of 1.03 µM and a selectivity ratio [1] of 4.07. The selectivity ratio [2] was 4.32, the “Ratio IC50” value [3] was 2.42 and the IC50 (U-87 MG) was 1.12 µM. The IC50 (SK-OV-3) was 1.73 µM, the selectivity ratio [5] was 2.52 and the IC50 (PC-3) was 1.66 µM. The IC50 [6] was 4.19 µM.

For `CO[C@H]1/C=C\C=C(/C)C(=O)NC2=CC(=O)C(NCCCCO)=C(C[C@@H](C)C[C@H](OC)[C@H](O)[C@@H](C)/C=C(\C)[C@@H]1OC(N)=O)C2=O`, the IC50 (A549) was 1.63 µM, the IC50 (SK-BR-3) was 1.63 µM and the selectivity ratio [1] was 2.15. The selectivity ratio [2] was 2.15, the “Ratio IC50” value [3] was 2.21 and the IC50 (U-87 MG) was 1.6 µM. The selectivity ratio [4] was 2.19, the IC50 (SK-OV-3) was 1.59 µM and the selectivity ratio [5] was 2.11. It also gave an IC50 (PC-3) of 1.66 µM and an IC50 [6] of 3.51 µM.

Compound `CCCCOCCOCCNC1=C2C[C@@H](C)C[C@H](OC)[C@H](O)[C@@H](C)/C=C(\C)[C@H](OC(N)=O)[C@@H](OC)/C=C\C=C(/C)C(=O)NC(=CC1=O)C2=O` has an IC50 (A549) of 1.19 µM, an IC50 (SK-BR-3) of 1.02 µM and a selectivity ratio [1] of 2.59. For the same compound, the selectivity ratio [2] was 2.22, the “Ratio IC50” value [3] was 1.59 and the IC50 (U-87 MG) was 1.22 µM. The selectivity ratio [4] was 2.16, the IC50 (SK-OV-3) was 1.66 µM and the selectivity ratio [5] was 1.78. It also gave an IC50 (PC-3) of 1.48 µM and an IC50 [6] of 2.64 µM.

With `CO[C@H]1/C=C\C=C(/C)C(=O)NC2=CC(=O)C(NCc3cccc(N4CCOC4=O)c3)=C(C[C@@H](C)C[C@H](OC)[C@H](O)[C@@H](C)/C=C(\C)[C@@H]1OC(N)=O)C2=O` the IC50 (A549) was 3.73 µM, the IC50 (SK-BR-3) was 3.39 µM and the selectivity ratio [1] was 3.13. For the same compound, the selectivity ratio [2] was 3.02, the “Ratio IC50” value [3] was 3.72 and the IC50 (U-87 MG) was 3.18 µM. It also gave a selectivity ratio [4] of 3.55, an IC50 (SK-OV-3) of 3.03 µM and a selectivity ratio [5] of 3.51. The IC50 (PC-3) was 3.21 µM and the IC50 [6] was 11.3 µM.

In the case of `CO[C@H]1/C=C\C=C(/C)C(=O)NC2=CC(=O)C(NCCN3CCCC3=O)=C(C[C@@H](C)C[C@H](OC)[C@H](O)[C@@H](C)/C=C(\C)[C@@H]1OC(N)=O)C2=O`, the IC50 (A549) is reported as 1.6 µM, the IC50 (SK-BR-3) is reported as 2.05 µM and the selectivity ratio [1] is reported as 1.4. The selectivity ratio [2] was 1.8, the “Ratio IC50” value [3] was 1.87 and the IC50 (U-87 MG) was 1.77 µM. The selectivity ratio [4] was 1.63, the IC50 (SK-OV-3) was 1.54 µM and the selectivity ratio [5] was 1.57. For the same compound, the IC50 (PC-3) was 1.83 µM and the IC50 [6] was 2.88 µM.

For `COc1c(O)cc2cc1C[C@@H](C)C[C@H](OC)[C@H](O)[C@@H](C)/C=C(\C)[C@H](OC(N)=O)[C@@H](OC)CC/C=C(\C)C(=O)N2` [REBLASTATIN], the IC50 (SK-BR-3) was 0.6 µM, the selectivity ratio [1] was 53 and the “Ratio IC50” value [3] was 54. The IC50 (SK-OV-3) was 0.125 µM, the selectivity ratio [5] was 54 and the IC50 (PC-3) was 0.018 µM.
